# pIC50: −log10 of the molar value. Counter-ions that a name gives are not always drawn.
# Molecular target: T1, TAK1-TAB1 fusion protein (Homo sapiens, UniProt O43318)
# T1 construct: purchased Carna
# T1 sequence (O43318 with tags, fused parts or gaps limits assumed): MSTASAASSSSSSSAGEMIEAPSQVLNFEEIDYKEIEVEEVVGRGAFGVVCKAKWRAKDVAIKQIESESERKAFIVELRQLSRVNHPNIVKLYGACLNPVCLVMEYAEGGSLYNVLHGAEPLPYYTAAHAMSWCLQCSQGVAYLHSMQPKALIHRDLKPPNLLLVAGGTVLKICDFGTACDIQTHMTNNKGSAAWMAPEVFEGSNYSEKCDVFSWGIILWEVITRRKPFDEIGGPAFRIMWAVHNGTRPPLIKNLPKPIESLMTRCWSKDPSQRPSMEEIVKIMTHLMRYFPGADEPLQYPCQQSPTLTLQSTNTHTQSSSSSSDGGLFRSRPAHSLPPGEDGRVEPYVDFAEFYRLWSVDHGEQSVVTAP
# Experiment: TAK1 biochemical assay (AlphaScreen, GST-MAP2K7 substrate)
# Settings: TAK1-TAB1 fusion protein, GST-MAP2K7 substrate; read-out: mean TAK1 IC50 (Col. A)
row,SMILES,pIC50
1,"CCCOc1cccc(-c2cc3c(-c4cnn(C5CCN(C(C)=O)CC5)c4)cnc(N)c3o2)c1 [Example 181, 1-(4-{4-[7-amino-2-(3-propoxyphenyl)furo[2,3-c]pyridin-4-yl]-1H-pyrazol-1-yl}piperidin-1-yl)ethanone]",< 5.00
2,"Nc1ncc(-c2cnn(C3CCNCC3)c2)c2cc(-c3cccc(OC(F)(F)F)c3)oc12 [Example 22, 4-[1-(piperidin-4-yl)-1H-pyrazol-4-yl]-2-[3-(trifluoromethoxy)phenyl]furo[2,3-c]pyridine-7-amine]",< 5.00
3,"COC(=O)c1cc(-c2cnc(N)c3oc(-c4csc5cnccc45)cc23)cs1 [Example 378, 4-(7-amino-2-thieno[2,3-c]pyridin-3-yl-furo[2,3-c]pyridin-4-yl)-thiophene-2-carboxylic acid methyl ester]",< 5.00
4,"CC(=O)N1CCC(n2cc(-c3cnc(N)c4oc(C5CCCC5)cc34)cn2)CC1 [Example 198, 1-{4-[4-(7-amino-2-cyclopentylfuro[2,3-c]pyridin-4-yl)-1H-pyrazol-1-yl]piperidin-1-yl}ethanone]",5.00 to 6.00
5,"CC(=O)N1CCC(n2cc(-c3cnc(N)c4oc(-c5cccc(-c6ccccc6)c5)cc34)cn2)CC1 [Example 160, 1-(4-{4-[7-amino-2-(biphenyl-3-yl)furo[2,3-c]pyridin-4-yl]-1H-pyrazol-1-yl}piperidin-1-yl)ethanone]",5.00 to 6.00
6,"Nc1ccc(-c2cc3c(-c4cnn(C5CCNCC5)c4)cnc(N)c3o2)cn1 [Example 20, 2-(6-aminopyridin-3-yl)-4-[1-(piperidin-4-yl)-1H-pyrazol-4-yl]furo[2,3-c]pyridine-7-amine]",5.00 to 6.00
7,"CCOC(=O)Cn1cc(-c2cnc(N)c3oc(-c4cccc5cnccc45)cc23)cn1 [Example 59, ethyl {4-[7-amino-2-(isoquinolin-5-yl)furo[2,3-c]pyridin-4-yl]-1H-pyrazol-1-yl}acetate]",5.00 to 6.00
8,"CC(=O)N1CCC(n2cc(-c3cnc(N)c4oc(-c5ccc(N)cc5)cc34)cn2)CC1 [Example 183, 1-(4-{4-[7-amino-2-(4-aminophenyl)furo[2,3-c]pyridin-4-yl]-1H-pyrazol-1-yl}piperidin-1-yl)ethanone]",5.00 to 6.00
9,"CC(=O)N1CCC(n2cc(-c3cnc(N)c4oc(-c5ccc([N+](=O)[O-])nc5)cc34)cn2)CC1 [Example 119, 1-(4-{4-[7-amino-2-(6-nitropyridin-3-yl)furo[2,3-c]pyridin-4-yl]-1H-pyrazol-1-yl}piperidin-1-yl)ethanone]",5.00 to 6.00
10,"Nc1ncc(-c2cscn2)c2cc(-c3csc4cnccc34)oc12 [Example 396, 4-thiazol-4-yl-2-thieno[2,3-c]pyridin-3-yl-furo[2,3-c]pyridin-7-ylamine]",5.00 to 6.00
11,"CC(=O)N1CCC(n2cc(-c3cnc(N)c4oc(-c5c[nH]c6ccccc56)cc34)cn2)CC1 [Example 188, 1-(4-{4-[7-amino-2-(1H-indol-3-yl)furo[2,3-c]pyridin-4-yl]-1H-pyrazol-1-yl}piperidin-1-yl)ethanone]",< 5.00
12,"CC(=O)N1CCC(n2cc(-c3cnc(N)c4oc(-c5cnn(Cc6ccncc6)c5)cc34)cn2)CC1 [Example 151, 1-[4-(4-{7-amino-2-[1-(pyridin-4-ylmethyl)-1H-pyrazol-4-yl]furo[2,3-c]pyridin-4-yl}-1H-pyrazol-1-yl)piperidin-1-yl]ethanone]",5.00 to 6.00
13,"CC(=O)N1CCC(n2cc(-c3cnc(N)c4oc(-c5cccc(OCc6ccc(Cl)cc6)c5)cc34)cn2)CC1 [Example 206, 1-{4-[4-(7-amino-2-{3-[(4-chlorobenzyl)oxy]phenyl}furo[2,3-c]pyridin-4-yl)-1H-pyrazol-1-yl]piperidin-1-yl}ethanone]",< 5.00
14,"CC(=O)N1CCC(n2cc(-c3cnc(N)c4oc(C5=CCCC5)cc34)cn2)CC1 [Example 153, 1-(4-{4-[7-amino-2-(cyclopent-1-en-1-yl)furo[2,3-c]pyridin-4-yl]-1H-pyrazol-1-yl}piperidin-1-yl)ethanone]",5.00 to 6.00
15,"Nc1ncc(-c2cnn(C3CCNCC3)c2)c2cc(-c3cccnc3)oc12 [Example 26, 4-[1-(piperidin-4-yl)-1H-pyrazol-4-yl]-2-(yridine-3-yl)furo[2,3-c]pyridine-7-amine]",5.00 to 6.00
16,"Nc1ncc(-c2cnn(C3CCNCC3)c2)c2cc(-c3cncc4ccccc34)oc12 [Example 34, 2-(isoquinolin-4-yl)-4-[1-(piperidin-4-yl)-1H-pyrazol-4-yl]furo[2,3-c]pyridine-7-amine]",5.00 to 6.00

# The remaining lines, values ahead:
row,pIC50,SMILES
1,6.00 to 7.00,"Nc1ncc(-c2cnn(C3CC=CC3)c2)c2cc(-c3cccc4cnccc34)oc12 [Example 72, 4-[1-(cyclopent-3-en-1-yl)-1H-pyrazol-4-yl]-2-(isoquinolin-5-yl)furo[2,3-c]pyridin-7-amine]"
2,5.00 to 6.00,"Cn1cnc2cc(-c3oc4c(N)ncc(-c5cnn(C6CCNCC6)c5)c4c3Cl)cnc21 [Example 15, 3-chloro-2-(3-methyl-3H-imidazo[4,5-b]pyridine-6-yl)-4-[1-(piperidin-4-yl)-1H-pyrazol-4-yl]furo[2,3-c]pyridin-7-amine hydrochloride]"
3,5.00 to 6.00,"CC(=O)N1CCC(n2cc(-c3cnc(N(C)C)c4oc(-c5csc6cnccc56)cc34)cn2)CC1 [Example 276, 1-(4-{4-[7-(dimethylamino)-2-(thieno[2,3-c]pyridin-3-yl)furo[2,3-c]pyridin-4-yl]-1H-pyrazol-1-yl}piperidin-1-yl)ethanone trifluoroacetic acid salt]"
4,5.00 to 6.00,"Cn1ncc2cccc(-c3cc4c(-c5cnn([C@H]6CC[C@H](O)CC6)c5)cnc(N)c4o3)c21 [Example 357, trans-4-{4-[7-amino-2-(1-methyl-1H-indazol-7-yl)furo[2,3-c]pyridin-4-yl]-1H-pyrazol-1-yl}cyclohexanol]"
5,5.00 to 6.00,"CC(=O)N1CCC(n2cc(-c3cnc(N)c4oc(-c5ccc(C#N)cc5)cc34)cn2)CC1 [Example 170, 4-{4-[1-(1-acetylpiperidin-4-yl)-1H-pyrazol-4-yl]-7-aminofuro[2,3-c]pyridin-2-yl}benzonitrile]"
6,5.00 to 6.00,"COc1c(F)cccc1-c1cc2c(-c3cnn(C4CCNCC4)c3)cnc(N)c2o1 [Example 5, 2-(3-fluoro-2-methoxyphenyl)-4-[1-(piperidin-4-yl)-1H-pyrazol-4-yl]furo[2,3-c]pyridin-7-amine dihydrochloride]"
7,5.00 to 6.00,"Nc1ncc(-c2cnn(C3CCNCC3)c2)c2c(Cl)c(-c3cccc4cnccc34)oc12 [Example 16, 3-chloro-2-(isoquinoolin-5-yl)-4-[1-(piperidin-4-yl)-1H-pyrazol-4-yl]furo[2,3-c]pyridin-7-amine]"
8,5.00 to 6.00,"CC(=O)N1CCC(n2cc(-c3cnc(N)c4oc(-c5cccc(OCC(F)(F)F)c5)cc34)cn2)CC1 [Example 187, 1-[4-(4-{7-amino-2-[3-(2,2,2-trifluoroethoxy)phenyl]furo[2,3-c]pyridin-4-yl}-1H-pyrazol-1-yl)piperidin-1-yl]ethanone]"
9,6.00 to 7.00,"CC(=O)N1CCC(n2cc(-c3cnc(N)c4oc(-c5c(F)ccc6ncsc56)cc34)cn2)CC1 [Example 358, 1-(4-{4-[7-amino-2-(6-fluoro-1,3-benzothiazol-7-yl)furo[2,3-c]pyridin-4-yl]-1H-pyrazol-1-yl}piperidin-1-yl)ethanone bis(trifluoroacetate)]"
10,6.00 to 7.00,"CC(=O)N1CCC(n2cc(-c3cnc(N)c4oc(-c5cccc6c5cnn6C)cc34)cn2)CC1 [Example 214, 1-(4-{4-[7-amino-2-(1-methyl-1H-indazol-4-yl)furo[2,3-c]pyridin-4-yl]-1H-pyrazol-1-yl}piperidin-1-yl)ethanone]"
11,6.00 to 7.00,"COc1c(-c2cnc(N)c3oc(-c4csc5cnccc45)cc23)cnn1C [Example 344, 4-(5-methoxy-1-methyl-1H-pyrazol-4-yl)-2-thieno[2,3-c]pyridin-3-yl-furo[2,3-c]pyridin-7-ylamine]"
12,6.00 to 7.00,"CC(=O)N1CCC(n2cc(-c3cnc(N)c4oc(-c5cccc(N)c5)cc34)cn2)CC1 [Example 130, 1-(4-{4-[7-amino-2-(3-aminophenyl)furo[2,3-c]pyridin-4-yl]-1H-pyrazol-1-yl}piperidin-1-yl)ethanone]"
13,6.00 to 7.00,"Nc1cncc(-c2cc3c(-c4cnn(C5CCNCC5)c4)cnc(N)c3o2)c1 [Example 31, 2-(5-aminopyridin-3-yl)-4-[1-(piperidin-4-yl)-1H-pyrazol-4-yl]furo[2,3-c]pyridine-7-amine]"
14,6.00 to 7.00,O[C@H]1CC[C@H](n2cc(-c3cncc4oc(-c5cccc6ncsc56)cc34)cn2)CC1

# From patent US8378104B2 (OSI Pharmaceuticals, LLC, priority 2010, dated 2013)
